From the CombiSolv-Exp solvation set (Vermeire and Green 2021)
Blank lines part the entries; values can stand above or below the compound they belong to.

Test: solvent given as SMILES
[1] = in CCCCCCCCC=CCCCCCCCC(=O)OCC(COC(=O)CCCCCCCC=CCCCCCCCC)OC(=O)CCCCCCCC=CCCCCCCCC

solvation free energy, 298 K (in O): -17 kcal/mol
SMILES: O=P(c1ccccc1)(c1ccccc1)c1ccccc1

solvation free energy, 298 K (in O): -8.68 kcal/mol
SMILES: COc1c(O)c(OC)c(Cl)c(C=O)c1Cl

SMILES: ClCCOCCCl
solvation free energy, 298 K (in O): -4.23 kcal/mol

solvation free energy, 298 K (in O): -1.54 kcal/mol
SMILES: CCSSCC

solvation free energy, 298 K (in O): -3.54 kcal/mol
SMILES: CCOCCOCC

SMILES: ClC(Cl)(Cl)C(Cl)(Cl)Cl
solvation free energy, 298 K [1]: -5.42 kcal/mol
solvation free energy, 298 K (in CCCCCCCCO): -6.1 kcal/mol

SMILES: Clc1cccc2c1Oc1ccccc1O2
solvation free energy, 298 K (in O): -3.52 kcal/mol

solvation free energy, 298 K (in O): -3.41 kcal/mol
SMILES: CC(=O)OC(C)(C)C1CC=C(C)CC1 (stereo not drawn)

solvation free energy, 298 K (in C=CCCCCCCCCCCCCCC): -8.27 kcal/mol
solvation free energy, 298 K (in O): -9.89 kcal/mol
SMILES: COCc1ccc(C(=O)O)cc1

SMILES: CC(F)F
solvation free energy, 298 K (in CC(C)(C)O): -1.42 kcal/mol
solvation free energy, 298 K (in CC(C)CCO): -1.3 kcal/mol
solvation free energy, 298 K (in CC(C)CO): -1.35 kcal/mol
solvation free energy, 298 K (in CC(C)O): -1.5 kcal/mol
solvation free energy, 298 K (in CCC(C)(C)O): -1.36 kcal/mol
solvation free energy, 298 K (in CCC(C)CO): -1.23 kcal/mol
solvation free energy, 298 K (in CCC(C)O): -1.32 kcal/mol
solvation free energy, 298 K (in CCC(O)CC): -1.24 kcal/mol
solvation free energy, 298 K (in CCCC(C)O): -1.21 kcal/mol
solvation free energy, 298 K (in CCCCCCCC(=O)OCC(COC(=O)CCCCCCC)OC(=O)CCCCCCC): -1.37 kcal/mol
solvation free energy, 298 K (in CCCCCCCCC): -1.08 kcal/mol
solvation free energy, 298 K (in CCCCCCCCO): -1.07 kcal/mol
solvation free energy, 298 K (in CCCCCO): -1.28 kcal/mol
solvation free energy, 298 K (in CCCCO): -1.36 kcal/mol
solvation free energy, 298 K (in CCCO): -1.49 kcal/mol
solvation free energy, 298 K (in CN1CCCC1=O): -2.02 kcal/mol
solvation free energy, 298 K (in CN(C)C=O): -2.11 kcal/mol
solvation free energy, 298 K (in CO): -1.91 kcal/mol
solvation free energy, 298 K (in Cc1ccc(C)cc1): -1.62 kcal/mol
solvation free energy, 298 K (in Cc1cccc(C)c1): -1.63 kcal/mol
solvation free energy, 298 K (in Cc1ccccc1C): -1.62 kcal/mol
solvation free energy, 298 K (in O): -0.12 kcal/mol

solvation free energy, 298 K (in O): -6.11 kcal/mol
SMILES: CCCCCC(=O)O

SMILES: CC1CO1 (stereo not drawn)
solvation free energy, 298 K (in CC=O): -3.7 kcal/mol

solvation free energy, 298 K (in O): -3.84 kcal/mol
SMILES: Clc1ccc2c(c1)Oc1cc(Cl)c(Cl)c(Cl)c1O2

SMILES: C1CO1
solvation free energy, 298 K (in O): -2.87 kcal/mol

SMILES: Clc1ccc(C(c2ccc(Cl)cc2)C(Cl)(Cl)Cl)cc1
solvation free energy, 298 K [1]: -14.9 kcal/mol
solvation free energy, 298 K (in CCCCCCCCO): -13.8 kcal/mol
solvation free energy, 298 K (in O): -4.61 kcal/mol

SMILES: CCCSC(=O)N(CCC)CCC
solvation free energy, 298 K (in O): -4.13 kcal/mol

solvation free energy, 298 K (in O): -7.67 kcal/mol
SMILES: COc1cccc(O)c1

solvation free energy, 298 K (in O): -4.61 kcal/mol
SMILES: Clc1cc(-c2c(Cl)cc(Cl)c(Cl)c2Cl)c(Cl)c(Cl)c1Cl

SMILES: CC(=O)C(C)(C)C
solvation free energy, 298 K (in CCCCCC): -4.34 kcal/mol
solvation free energy, 298 K (in CCCCCCC): -4.3 kcal/mol
solvation free energy, 298 K (in CCCCCCCC): -4.21 kcal/mol
solvation free energy, 298 K (in CCCCCCCCCC): -4.15 kcal/mol
solvation free energy, 298 K (in O): -3.11 kcal/mol

solvation free energy, 298 K (in O): -2.73 kcal/mol
SMILES: CSc1ccccc1

SMILES: c1ccncc1
solvation free energy, 298 K (in C1COCCO1): -5.69 kcal/mol
solvation free energy, 298 K (in CC(=O)N(C)C): -5.76 kcal/mol
solvation free energy, 298 K (in CC(C)(C)O): -5.4 kcal/mol
solvation free energy, 298 K (in CC(C)=O): -5.42 kcal/mol
solvation free energy, 298 K (in CC(C)CC(C)(C)C): -4.03 kcal/mol
solvation free energy, 298 K (in CC(C)CO): -5.67 kcal/mol
solvation free energy, 298 K (in CC(C)O): -5.27 kcal/mol
solvation free energy, 298 K (in CCC(C)=O): -5.37 kcal/mol
solvation free energy, 298 K (in CCC(C)O): -5.63 kcal/mol
solvation free energy, 298 K (in CCCCCC): -4.19 kcal/mol
solvation free energy, 298 K (in CCCCCCCCCCCCCCCC): -4.04 kcal/mol
solvation free energy, 298 K (in CCCCCCCCO): -5.32 kcal/mol
solvation free energy, 298 K (in CCCCN(C=O)CCCC): -5.32 kcal/mol
solvation free energy, 298 K (in CCCCO): -5.39 kcal/mol
solvation free energy, 298 K (in CCCO): -5.44 kcal/mol
solvation free energy, 298 K (in CCO): -5.7 kcal/mol
solvation free energy, 298 K (in CNC(C)=O): -5.35 kcal/mol
solvation free energy, 298 K (in O): -4.69 kcal/mol
solvation free energy, 298 K (in [2H]O[2H]): -4.52 kcal/mol

SMILES: CN(C)C1CCCCC1
solvation free energy, 298 K (in O): -4.12 kcal/mol

SMILES: Cc1ccc(O)c(C)c1
solvation free energy, 298 K (in CCCCCC): -6.51 kcal/mol
solvation free energy, 298 K (in CCCCCCC): -6.48 kcal/mol
solvation free energy, 298 K (in CCCCCCCC): -6.46 kcal/mol
solvation free energy, 298 K (in O): -6.02 kcal/mol

solvation free energy, 298 K (in O): -16.9 kcal/mol
SMILES: O=c1[nH]cc(F)c(=O)[nH]1

SMILES: C=C(Cl)Cl
solvation free energy, 298 K (in CCO): -3.25 kcal/mol
solvation free energy, 298 K (in CO): -2.95 kcal/mol
solvation free energy, 298 K (in O): 0.22 kcal/mol

SMILES: Cc1ccc([N+](=O)[O-])cc1
solvation free energy, 298 K (in O): -4.96 kcal/mol

SMILES: O=[N+]([O-])c1c(Cl)c(Cl)c(Cl)c(Cl)c1Cl
solvation free energy, 298 K [1]: -10.5 kcal/mol

solvation free energy, 298 K (in O): -0.5 kcal/mol
SMILES: C=C(CCC=C(C)C)C1CC=C(C)CC1 (stereo not drawn)

solvation free energy, 298 K (in CCCCCCCC): -4.82 kcal/mol
solvation free energy, 298 K (in CCCCCCCCCC): -4.79 kcal/mol
SMILES: CCC(C)CCO (stereo not drawn)

solvation free energy, 298 K (in O): -4.39 kcal/mol
SMILES: Clc1ccccn1

solvation free energy, 298 K (in O): 0.12 kcal/mol
SMILES: CC1=CC=C(C(C)C)CC1

solvation free energy, 298 K (in O): -4.91 kcal/mol
SMILES: CC(=O)CC(=O)C(F)(F)F

SMILES: Clc1cc(Cl)c(-c2ccc(Cl)c(Cl)c2Cl)cc1Cl
solvation free energy, 298 K (in CCCCCCCCO): -13.2 kcal/mol
solvation free energy, 298 K (in O): -3.34 kcal/mol

solvation free energy, 298 K (in O): 0.56 kcal/mol
SMILES: CC1=CCC23C(C)CCC(C(C)C)C2C13 (stereo not drawn)

solvation free energy, 298 K (in O): -7.62 kcal/mol
SMILES: CC(=O)c1ccncc1

solvation free energy, 298 K (in N#Cc1ccccc1): -3.26 kcal/mol
SMILES: C=CC=CC

solvation free energy, 298 K (in O): -4.13 kcal/mol
SMILES: CCCCC(=O)CC(=O)CCCC

solvation free energy, 298 K (in C=CCCCCCCCCCCCCCC): -3.7 kcal/mol
solvation free energy, 298 K (in CC#N): -2.7 kcal/mol
solvation free energy, 298 K (in CN1CCCC1=O): -2.66 kcal/mol
solvation free energy, 298 K (in O): 2.88 kcal/mol
SMILES: CCCC(C)(C)C

SMILES: CS(=O)(=O)Cl
solvation free energy, 298 K (in O): -4.87 kcal/mol

solvation free energy, 298 K (in O): -9.55 kcal/mol
SMILES: O=C(O)c1cccc(O)c1

SMILES: COP(=O)(OC)OC
solvation free energy, 298 K (in O): -8.7 kcal/mol

SMILES: CCCCOC
solvation free energy, 298 K (in CCCCCl): -4.26 kcal/mol
solvation free energy, 298 K (in ClC(Cl)(Cl)Cl): -4.39 kcal/mol
solvation free energy, 298 K (in ClCCl): -4.71 kcal/mol

solvation free energy, 298 K (in C1COCCO1): -5.72 kcal/mol
solvation free energy, 298 K (in O): -7.17 kcal/mol
SMILES: C1COCCN1
